Measured values from patent US4251524A (priority 1976, dated 1981).

What follows are molecules tested on Klebsiella pneumoniae; Enterobacter aerogenes sp.; Providencia; Serratia marcescens; E. coli BE; Salmonella sp.; Shigella sp.; Proteus, indole-negative and …. Details: 100 μg/ml, Muller-Hinton nutrient broth with 0.1% glucose, 1×10^5 to 2×10^5 bacteria per ml, 24 hours; all listed cultures.
Format: cell-based

| SMILES | freedom from turbidity of bacterial cultures (indicates action) |
| --- | --- |
| CC=CC=NN1CCN(C(=O)N[C@@H](C(=O)N[C@]2(OC)C(=O)N3C(C(=O)O)=C(COC(C)=O)CS[C@@H]32)c2ccccc2)C1=O [Example 36, 7-methoxy-7-{D-α-[(2-oxo-3-but-2-enylideneamino-imidazolidin-1-yl)-carbonylamino]-phenylacetamido}-3-acetoxymethyl-ceph-3-em-4-carboxylic acid] | free from turbidity |
| CC1(C)S[C@@H]2[C@H](NC(=O)[C@H](NC(=O)N3CCN(N=Cc4ccccc4)C3=O)c3ccccc3)C(=O)N2[C@H]1C(=O)O [Example 1.3, sodium 6-{D-α-[(2-oxo-3-benzalimino-imidazolidin-1yl)-carbonylamino]phenylacetamido}-penicillanate] | free from turbidity |
| CC1(C)S[C@@H]2[C@H](NC(=O)[C@H](NC(=O)N3CCN(N=Cc4ccc(Cl)cc4)C3=O)C3=CCC=CC3)C(=O)N2[C@H]1C(=O)O [Example 2.4, sodium 6-{D-α-[(2-oxo-3-{4-chloro}-benzalimino-imidazolidin-1-yl)-carbonylamino]-cyclohex-1,4-dien-1-yl-acetamido}-penicillanate] | free from turbidity |
| CC1(C)S[C@@H]2[C@H](NC(=O)[C@H](NC(=O)N3CCN(N=Cc4ccc(Cl)cc4)C3=O)c3ccccc3)C(=O)N2[C@H]1C(=O)O [Example 2.3, sodium 6-{D-α-[(2-oxo-3-{4-chloro}-benzalimino-imidazolidin-1-yl)-carbonylamino]-phenylacetamido}-penicillanate] | free from turbidity |
| COC1(NC(=O)[C@H](NC(=O)N2CCN(N=Cc3ccco3)C2=O)c2ccccc2)C(=O)N2C(C(=O)O)=C(COC(C)=O)CS[C@@H]21 (some centres unmarked) [Example 36.5] | free from turbidity |
